Patent US20110028554A1, “PHARMACEUTICAL COMPOSITIONS COMPRISING DIIODOTHYRONINE AND THEIR THERAPEUTIC USE” (UNIVERSITE JOSEPH FOURIER, priority 2007, published 2011)

Tests used:
[1] = tested on: muscle mitochondria; test: Muscle mitochondrial oxygen consumption (JO2) of treated Wistar rats; format: in vivo; settings: high dosage 25 μg/100 g BW
Description: (§1) All measurements were performed using mitochondria (0.2 mg mitochondrial protein/ml) incubated with various substrates: • GM: glutamate/malate (5 mM/2.5 mM) • SR: succinate/rotenone (5 mM/5 μM), • GMS: glutamate/malate/succinate (5 mM/2.5 mM/5 mM), • Palm: palmitoyl carnitine (55 μM), • Octa: octanoyl carnitine (100 μM), • TMPD/AsC: TMPD/ascorbate (0.5 mM/0.5 mM), and • TMPD/AsC/DNP: TMPD/ascorbate/DNP (0.5 mM/0.5 mM/75 μM).
JO2 was recorded in the presence of the substrate and following the addition of 1 mM ADP (state 3).
The oligomycin was added to the mitochondrial suspension to determine the non-phosphorylating respiratory rate (state 4).
(§2) The major part of the liver and the red part of each quadriceps were rinsed, and chopped into isolation medium (250 mM sucrose, 20 mM Tris-HCl and 1 mM EGTA-Tris, pH 7.4). Nuclei and cell debris were removed, by centrifugation at 800 g for 10 min. Mitochondria were then isolated from the supernatant by spinning twice at 8,000 g for 10 minutes. The mitochondrial pellet was resuspended in 0.5 ml of isolation buffer and kept on ice. Mitochondrial protein was measured by the bicinchoninic acid method (Pierce, Rockford, Ill.). The final mitochondrial suspensions were maintained on ice and were used for measurements of oxygen consumption rate and reactive oxygen species (ROS) production.
(§3) The rate of mitochondrial oxygen consumption (JO2) was measured at 30° C. in an incubation chamber with a Clark-type O2 electrode filled with 2 ml of incubation medium (125 mM KCl, 10 mM Pi-Tris, 20 mM Tris-HCl, 0.1 mM EGTA, pH 7.2). All measurements were performed using mitochondria (1.0 or 0.2 mg mitochondrial protein/ml for liver and skeletal muscle) incubated either with various substrates: glutamate/malate (5 mM/2.5 mM) and succinate (5 mM), alone or in combination, palmitoyl carnitine (55 μM) and octanoyl carnitine (100 μM). For each substrate, JO2 was recorded in the presence of the substrate alone (State 2) and following the addition of 1 mM ADP (state 3). Oligomycin (1.25 μg/mg protein) was added to the mitochondrial suspension to determine the non-phosphorylating respiratory rate (state 4). The incubation medium was constantly stirred with a built-in electromagnetic stirrer and bar flea. The efficiency of the mitochondrial oxidative phosphorylation was assessed by the state 3/state 4 ratio which measures the degree of control imposed on oxidation by phosphorylation (respiratory control ratio, RCR).

[2] = Body composition (adipose tissues, skeletal muscles, brown adipose tissue) of Wistar rats; format: in vivo; settings: high dosage 25 μg/100 g BW
Source text: (§4) At the end of the experimental period, animals were sacrificed by decapitation, in order to avoid the well-known effects of general anesthetics on mitochondrial metabolism. Blood, samples were immediately collected and plasma was frozen for subsequent determination of serum metabolites and hormones. Liver, muscles and fat depots were quickly excised and weighed. Liver median lobe was rapidly freeze-clamped. Muscles (plantaris, soleus and gastrocnemius) were frozen in isopentane precooled in liquid nitrogen. Mesenteric fat consisted, of adipose tissue surrounding the gastro-intestinal tract from the gastro-oesophageal sphincter to the end of the rectum with special care taken in distinguishing and removing the pancreas. Retroperitoneal fat pad was taken as the distinct depot behind each kidney along the lumbar muscles. Epididymal fat consisted, of adipose tissue on top of the epididymis. For subcutaneous depot measurement, a rectangular piece of skin was taken on the right side of each animal from the median line of the abdomen between the spine and the right hip to the first rib. Interscapular brown adipose tissue was removed and dissected free from adjacent muscles and white adipose tissue. The heart ventricles, the right kidney and the spleen were also excised, weighed and frozen.

[3] = Plasmatic concentrations of glucose, triglycerides, cholesterol, FFA and HDL on the day of sacrifice; format: in vivo, Wistar, Zucker and ZDF rats; settings: non-diabetic Wistar rats, 3,3′-T2 treatment (dose not printed in FIG. 15A legend)
Source text: These measurements were done on venous blood of the rats the day of the sacrifice.
as §4
Glucose and 3-hydroxybutyrate (3-HB) were measured, enzymatically and non esterified fatty acid (NEFA) by colorimetric assay (Wako Chemicals).
Triglycerides and cholesterol were measured by classical routine automate apparatus.

[4] = Food intake of Wistar rats; format: in vivo; settings: high dosage 25 μg/100 g BW
Description: (§5) Adult male rat bred in the animal room facilities of Laboratory of Fundamental and Applied. Bioenergetics (Wistar strain) or purchased from Charles-River Laboratories, Domaine des oncins, L'ARBRESLE France [(genetically obese normoglycemic (Zucker or Fa/Fa) or diabetic (ZDF)] were caged individually in stainless steel hanging cages and maintained in a 22° C., 50±10% relative humidity and 12 h:12 h light:dark environment. All animals were fed ad libitum with a standard rat chow (Safe A04, Villemoisson, France) and tap water. Body mass and food intake were recorded twice/thrice a week and fresh food was provided, at the same time to ensure minimal disturbance to the animals' food, behavior.
(§6) Eight-week old rats (300 g±10 g) were anesthetized by simultaneous intraperitoneal injection of diazepam 4 mg/kg and ketamine 100 mg/kg. In order to maintain body temperature during the surgery (10 min), animals were placed on a warm blanket. After interscapular shaving, a small incision of 0.5 cm of the skin allows the subcutaneous implantation of a small pellet (containing rT3 or 3′,3-T2) with a 10-gauge precision trochar. The pellets, manufactured by Innovative Research of America (Sarasota, Fla., USA) are constituted of a biodegradable matrix that effectively and continuously release the active product in the animal.
(§7) 3-5 diiodothyronine (3-5 T2) or 3-3′diiodothyronine (3-3′ T2) were used at different doses (5, 0.5, or 0.1 mg/pellet) were implanted in order to provide a continuous and constant drug delivery over 60 days (which represents 25 μg, 2.5 μg or 0.5 μg/day/100 g BW).

[5] = Growth rate (body weight) of Wistar rats with subcutaneous continuous-release pellet; format: in vivo; settings: high dosage 25 μg/100 g BW
Description: as §5, §6, §7

[6] = tested on: liver mitochondria; test: Liver mitochondrial oxygen consumption (JO2) of treated Wistar rats; format: in vivo; settings: high dosage 25 μg/100 g BW
Description: as §1, with “(1.0” for “(0.2”
JO2 was recorded in the presence of the substrate and following the addition of 1 mM ADP (adenosine diphosphate) (state 3).
The oligomycin was added to the mitochondrial suspension to determine the non-phosphorylating respiratory-rate (state 4).
as §2, §3

[7] = tested on: nuclear receptors of the thyroid hormones, TRα-1 and TRβ-1; settings: literature; cited from earlier work

Row | Compound | Muscle mitochondrial respiration, non-phosphorylating (state 4), vs placebo [1] | Muscle mitochondrial respiration, phosphorylating (state 3), vs placebo [1] | Brown adipose tissue weight vs placebo [2] | Fat masses, all localizations (retroperitoneal, epididymal, mesenteric, subcutaneous) vs placebo [2] | Muscle mass / lean body mass vs placebo [2] | Plasmatic glucose at the end of the treatment [3] | Food intake vs placebo [4] | Growth rate (body weight gain) vs placebo [5] | Liver mitochondrial respiratory rate, non-phosphorylating (state 4, oligomycin), vs placebo [6] | Liver mitochondrial respiratory rate, phosphorylating condition (state 3), vs placebo ([6]; all substrates) | Binding to the nuclear receptors [7]
1 | N[C@@H](Cc1ccc(Oc2ccc(O)c(I)c2)c(I)c1)C(=O)O [3,3′-T2, 3′,3-diiodothyronine] | failed to substantially affect | failed to substantially affect | significantly increased | significantly decreased | not affected | minor changes | a biphasic effect was observed | did not show similar weight gain | substantially higher in the low 3,5-T2 group only | very significant increased respiratory rate | –
2 | N[C@@H](Cc1cc(I)c(Oc2ccc(O)c(I)c2)c(I)c1)C(=O)O [T3] | – | – | – | – | – | – | – | – | – | – | binds very efficiently
3 | N[C@@H](Cc1cc(I)c(Oc2cc(I)c(O)c(I)c2)c(I)c1)C(=O)O [T4, Thyroxine] | – | – | – | – | – | – | – | – | – | – | binds less efficiently
